Results as given in patent US11766447B2, “3′3′-cyclic dinucleotide analogue comprising a cyclopentanyl modified nucleotide as sting modulator” (INSTITUTE OF ORGANIC CHEMISTRY AND BIOCHEMISTRY ASCR, V.V.I., priority 2019, dated 2023).
Where two headings read alike, the source gives them in different places.

Assays:
[1] = system: peripheral blood mononuclear cells (PBMC); assay: Peripheral blood mononuclear cell (PBMC) assay; assay type: cell-based; conditions: 1 h with compounds, washed, 15 hour incubation, average of one to four donors
Experimental: Selected compounds were tested in an in vitro peripheral blood mononuclear cell (PBMC) assay. […] Serially diluted tested compounds were added to wells in 50 μl of cultivation medium and cell were incubated with compounds for 1 h at 37° C. with 5% CO2. Plates with cells were then spun 500 g for 5 minutes and medium was removed. Cells were washed twice with the cell culture medium by the use of centrifugation and gently resuspended in 100 μl medium without compounds. After 15 hour incubation at 37° C. with 5% CO2, the cell culture medium was collected and the levels of interferon-alpha (INF-α), interferon-gamma (INF-γ) and tumor necrosis factor-alpha (TNF-α) were determined with ProcartaPlex Assays (ThermoFisher, Waltham, USA) and MAGPIX System (Merck KGaA, Darmstadt, Germany). […] Values reported are an average of runs from one to four donors.

WT STING [2] = target: T1, WT STING (Homo sapiens, UniProt Q86WV6, H232R); assay: 293T WT STING standard reporter assay; assay type: cell-based; design: host or cells: 293T (ATCC CRL-3216), stably transfected, with 4xISRE firefly luciferase reporter; conditions: 293T wtSTING-FL cells, ISRE firefly luciferase; no digitonin; 7 hours with compounds; 8-point curve
Description: Two complementary oligonucleotides of the sequence […] […] […] […] […] The oligonucleotides were mixed in equal molar amounts, hybridized, and cleaved by restriction endonucleases HindIII (cat. #. R0104S, NEB, Ipswich, USA) and BglII (cat. #R0144S, NEB, Ipswich, USA). Ultimately, they were ligated into plasmid pGL4.27 (cat. #E6651, Promega, Madison, USA) linearized with the same enzymes. As result the sequence with four ISRE sites was placed upstream of the minimum promoter of firefly luciferase reporter gene.
After 5 minutes incubation at room temperature (RT), 250 μL of the mixture was added dropwise to the cells in one well. Cells were incubated 36 hours at 37° C. with 5% CO2, and then detached with 0.05% Trypsin and 0.22 g/L EDTA (both cat. #L0941, Biowest, Riverside, USA).
Transfected cells were seeded onto poly-D-lysine coated six well plates at density 50,000 cells per 1 cm^2 in DMEM medium with high glucose containing 10% heat inactivated FBS, 30 μg/mL blasticidin (cat. #ant-b1-05, InvivoGen, San Diego, USA), 0.06 mg/ml Penicillin G and 0.1 mg/ml Streptomycin Sulfate (both cat. #. L0018, Biowest, Riverside, USA). The medium was replenished every 3-4 days until visible colonies of cells resistant to blasticidin were formed.
Blasticidin resistant cells stably expressing WT STING were further transfected with […] plasmid following the same procedure as described above. […] Homogeneous culture of stably double transfected cells was prepared by limiting dilution of cells in 96 well plates and wells with cells were selected that originated from a single cell.
The medium was removed next day and three-fold serial dilutions of compounds in 100 μl medium were added to the cells. The plates with cells were incubated for 7 hours at 37° C. with 5% CO2. After 50 μl of the medium was removed, 30 μl of ONE-Glo™ Luciferase Assay System reagent (cat. #E6120, Promega, Madison, USA) was added to each well and luminescence was read on Synergy H1 (Biotek, Winooski, USA).
Target sequence in this assay (Q86WV6 whole entry H232R): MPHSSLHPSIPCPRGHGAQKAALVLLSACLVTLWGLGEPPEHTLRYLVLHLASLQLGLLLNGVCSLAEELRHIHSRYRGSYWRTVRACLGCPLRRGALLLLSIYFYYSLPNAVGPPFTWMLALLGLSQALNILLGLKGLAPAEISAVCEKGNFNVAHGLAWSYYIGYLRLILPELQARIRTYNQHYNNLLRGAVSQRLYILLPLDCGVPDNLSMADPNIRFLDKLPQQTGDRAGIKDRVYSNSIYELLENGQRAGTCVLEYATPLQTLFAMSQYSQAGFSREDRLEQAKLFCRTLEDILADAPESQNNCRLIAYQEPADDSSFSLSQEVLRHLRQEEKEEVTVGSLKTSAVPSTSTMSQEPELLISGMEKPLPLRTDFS

WT STING [3] = target: T1, WT STING; assay: Digitonin assay using 293T wtSTING-FL reporter cells; assay type: cell-based; design: host or cells: 293T (ATCC CRL-3216), stably transfected, with 4xISRE firefly luciferase reporter; conditions: 293T wtSTING-FL cells, ISRE firefly luciferase; compounds in Digitonin buffer 30 minutes, then 5 hours; 8-point curve
Target sequence in this assay (Q86WV6 whole entry H232R): as above

AQ STING (G230A-R293Q) = target: T2, AQ STING (G230A-R293Q) (Homo sapiens, UniProt Q86WV6, G230A/H232R/R293Q); assay: Differential scanning fluorimetry (DSF) with AQ STING; assay type: binding; conditions: thermal shift vs apoprotein; 150 μM CDN; truncated human AQ STING 0.1 mg/ml
T2 construct: 8xHis (N, cleaved yes); SUMO (N, cleaved yes); made in house; host or cells: E. coli Rosetta-gami B (DE3)
Method in brief: (§1)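 […] STING proteins, alone or with CDNs, in triplicate, thermally denatured on a real-time PCR cycler. Denaturing temperatures taken from first-derivative curves; shift = mean Tm of STING–CDN complex minus mean Tm of apoprotein.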

WT STING [4] = target: T1, WT STING; assay: Differential scanning fluorimetry (DSF) with WT STING; assay type: binding; design: 8xHis (N, cleaved yes); SUMO (N, cleaved yes); made in house; host or cells: E. coli Rosetta-gami B (DE3); conditions: thermal shift vs apoprotein; 150 μM CDN; truncated human WT STING 0.1 mg/ml
Method in brief: as §1
Target sequence in this assay (Q86WV6 140-343 H232R): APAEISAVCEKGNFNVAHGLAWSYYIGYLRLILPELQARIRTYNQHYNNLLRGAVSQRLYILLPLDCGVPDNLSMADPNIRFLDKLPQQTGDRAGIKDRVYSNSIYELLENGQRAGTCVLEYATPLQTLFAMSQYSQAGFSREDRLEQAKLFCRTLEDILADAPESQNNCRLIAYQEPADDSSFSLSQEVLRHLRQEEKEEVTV

[5] = interferon-alpha level, read-out: PBMC EC50 (μM) IFN-α
[6] = interferon-gamma level, read-out: PBMC EC50 (μM) IFN-γ
[7] = tumor necrosis factor-alpha level, read-out: PBMC EC50 (μM) TNF-α
[8] = PBMC, interferon-alpha level, read-out: PBMC EC50 (μM) IFN-α
[9] = PBMC, interferon-gamma level, read-out: PBMC EC50 (μM) IFN-γ
[10] = PBMC, tumor necrosis factor-alpha level, read-out: PBMC EC50 (μM) TNF-α

T2 sequence (Q86WV6 140-343 G230A/H232R/R293Q): as the sequence (Q86WV6 140-343 H232R) above, with G91A, R154Q counted along it

Row | EC50 (WT STING [2]) [µM] | SMILES | EC50 [1, 8] [µM] | EC50 [1, 9] [µM] | EC50 [1, 10] [µM] | also measured
1 | 0.02 | CC(C)(C)C(=O)OCOP1(=O)OC[C@H]2C[C@@H](n3cnc4c(N)ncnc43)C(F)C2OP(=O)(OCOC(=O)C(C)(C)C)OC[C@H]2C[C@@H](n3cnc4c(N)ncnc43)C(F)C2O1 (single isomer, unassigned) [Compound 138b] |  |  |  | EC50 [1, 5]: 1 µM; EC50 [1, 6]: 2.6 µM; EC50 [1, 7]: 1.3 µM
2 | 0.4 | Nc1ncnc2c1ncn2[C@@H]1C[C@@H]2COP(=O)(S)OC3C(F)[C@H](n4cnc5c(N)ncnc54)O[C@@H]3COP(=O)(S)OC2C1F (single isomer, unassigned) [Compound 102d] |  |  |  | EC50 (WT STING [3]): 0.01 µM
3 | 0.7 | Nc1ncnc2c1ncn2[C@@H]1C[C@@H]2COP(=O)(S)OC3C(F)[C@H](n4cnc5c(N)ncnc54)O[C@@H]3COP(=O)(S)OC2C1F (single isomer, unassigned) [Compound 102b] |  |  |  | DSF ΔTm (° C.) AQ STING (AQ STING (G230A-R293Q)): 16.9 °C; EC50 (WT STING [3]): 0.005 µM; DSF ΔTm (° C.) WT STING (WT STING [4]): 11.9 °C
4 | 0.001 | CCC(C)(C)C(=O)OCOP1(=O)OC[C@H]2O[C@@H](n3cnc4c(N)ncnc43)C(F)C2OP(=O)(OCOC(=O)C(C)(C)CC)OC[C@H]2C[C@@H](n3cnc4c(N)ncnc43)C(F)C2O1 (stereo partly drawn) [Compound 144b, {[(1R,6R,8R,9R,10R,15R,17R,18S)-8,17-bis(6-amino-9H-purin-9-yl)-3-{[(2,2-dimethylbutanoy)oxy]methoxy}-9,18-difluoro-3,12-dioxo-2,4,7,11,13-pentaoxa-3λ^5,12λ^5-diphosphatricyclo[13.3.0.0^6,10]octadecan-12-yl]oxy}methyl 2,2-dimethylbutanoate] | 0.04 | 0.05 | 0.02 | 
5 | 0.07 | CC(C)(C)C(=O)OCOP1(=O)OC[C@H]2C[C@@H](n3cnc4c(N)ncnc43)C(F)C2OP(=O)(OCOC(=O)C(C)(C)C)OC[C@H]2C[C@@H](n3cnc4c(N)ncnc43)C(F)C2O1 (single isomer, unassigned) [Compound 138a] |  | 1.5 | 1.9 | EC50 [1, 5]: 3.2 µM
6 | 0.2 | Nc1nc2c(ncn2[C@@H]2O[C@@H]3COP(=O)(S)OC4C(F)[C@H](n5cnc6c(N)ncnc65)C[C@@H]4COP(=O)(S)OC3C2F)c(=O)[nH]1 (stereo partly drawn) [Compound 132b, (1R,6R,8R,9R,10R,15R,17R,18S)-8-(2-amino-6-oxo-6,9-dihydro-1H-purin-9-yl)-17-(6-amino-9H-purin-9-yl)-9,18-difluoro-3,12-disulfanyl-2,4,7,11,13-pentaoxa-3λ^5,12λ^5-diphosphatricyclo[13.3.0.0^6,10]octadecane-3,12-dione] |  |  |  | ΔTm at 150 µM (AQ STING (G230A-R293Q)): 26.1 °C; EC50 (WT STING [3]): 0.01 µM; ΔTm at 150 µM (WT STING [4]): 18.6 °C
7 | 0.001 | CCC(C)(C)C(=O)OCOP1(=O)OC[C@H]2O[C@@H](n3cnc4c(N)ncnc43)[C@H](F)[C@@H]2OP(=O)(OCOC(=O)C(C)(C)CC)OC[C@H]2C[C@@H](n3cnc4c(N)ncnc43)[C@H](F)[C@@H]2O1 (single isomer, unassigned) [Compound 144c] | 0.004 | 0.003 | 0.002 | 
8 | 0.001 | CC(C)(C)C(=O)OCOP1(=O)OC[C@H]2O[C@@H](n3cnc4c(N)ncnc43)CC2OP(=O)(OCOC(=O)C(C)(C)C)OC[C@H]2C[C@@H](n3cnc4c(N)ncnc43)C(F)C2O1 (stereo partly drawn) [Compound 139b, (((2R,3aS,7aR,9R,10S,10aR,14aR)-2,9-bis(6-amino-9H-purin-9-yl)-10-fluoro-5,12-dioxidodecahydro-2H-cyclopenta[d]furo[3,2-j][1,3,7,9]tetraoxa[2,8]di-phosphacyclododecine-5,12-diyl)bis(oxy))bis(methylene) bis(2,2-dimethylpropanoate)] |  |  |  | EC50 [1, 5]: 0.3 µM; EC50 [1, 6]: 0.1 µM; EC50 [1, 7]: 0.1 µM
9 | 0.5 | Nc1ncnc2c1ncn2[C@@H]1C[C@@H]2COP(=O)(S)OC3C[C@H](n4cnc5c(N)ncnc54)O[C@@H]3COP(=O)(S)OC2C1F (single isomer, unassigned) [Compound 142b] |  |  |  | EC50 (WT STING [3]): 0.02 µM
10 | 0.001 | CCCCCCCC(=O)OCOP1(=O)OC[C@H]2O[C@@H](n3cnc4c(N)ncnc43)[C@H](F)[C@@H]2OP(=O)(OCOC(=O)CCCCCCC)OC[C@H]2C[C@@H](n3cnc4c(N)ncnc43)[C@H](F)[C@@H]2O1 (single isomer, unassigned) [Compound 146c] |  |  |  | EC50 [1, 5]: 0.02 µM; EC50 [1, 6]: 0.02 µM; EC50 [1, 7]: 0.01 µM
11 | 0.0001 | CCCCCCCC(=O)OCOP1(=O)OC[C@H]2O[C@@H](n3cnc4c(N)ncnc43)[C@H](F)[C@@H]2OP(=O)(OCOC(=O)CCCCCCC)OC[C@H]2C[C@@H](n3cnc4c(N)ncnc43)[C@H](F)[C@@H]2O1 (single isomer, unassigned) [Compound 146a] | 0.04 |  |  | 
12 | 0.006 | CC1(C(=O)OCOP2(=O)OC[C@H]3O[C@@H](n4cnc5c(N)ncnc54)C(F)C3OP(=O)(OCOC(=O)C3(C)CCCCC3)OC[C@H]3C[C@@H](n4cnc5c(N)ncnc54)C(F)C3O2)CCCCC1 (stereo partly shown) [Compound 145c] | 0.04 | 0.01 | 0.02 | 
13 | 0.003 | CC(C)(C)C(=O)OCOP1(=O)OC[C@H]2O[C@@H](n3cnc4c(N)ncnc43)CC2OP(=O)(OCOC(=O)C(C)(C)C)OC[C@H]2C[C@@H](n3cnc4c(N)ncnc43)C(F)C2O1 (stereo partly drawn) [Compound 139a, (((2R,3aS,7aR,9R,10S,10aR,14aR)-2,9-bis(6-amino-9H-purin-9-yl)-10-fluoro-5,12-dioxidodecahydro-2H-cyclopenta[d]furo[3,2-j][1,3,7,9]tetraoxa[2,8]di-phosphacyclododecine-5,12-diyl)bis(oxy))bis(methylene) bis(2,2-dimethylpropanoate)] |  | 0.1 | 0.1 | 
14 | 0.005 | CC(C)OC(=O)OCOP1(=O)OC[C@H]2O[C@@H](n3cnc4c(N)ncnc43)C(F)C2OP(=O)(OCOC(=O)OC(C)C)OC[C@H]2C[C@@H](n3cnc4c(N)ncnc43)C(F)C2O1 (stereo partly drawn) [Compound 143b, {[(1R,6R,8R,9R,10R,15R,17R,18S)-8,17-bis(6-amino-9H-purin-9-yl)-9,18-difluoro-3,12-dioxo-3-({[(propan-2-yloxy)carbonyl]oxy}methoxy)-2,4,7,11,13-pentaoxa-3λ^5,12λ^5-diphosphatricyclo[13.3.0.0^6,10]octadecan-12-yl]oxy}methyl propan-2-yl carbonate] | 0.3 | 0.15 | 0.3 | 
